pIC50: −log10 of the molar value.
Test system: Plasmodium falciparum 3D7
Experiment: P. falciparum 3D7 asexual blood stage assay, Assay Procedure Version 2 (SYBR green readout)
Assay type: cell-based
Conditions: Plasmodium falciparum, 3D7, Erythrocyte, 72 h, Version 2 of the assay procedure (asterisk *); 72 h incubation in infected erythrocytes; 50,000 nM to 15 nM
Description: Asexual Blood Stage Assay
The assay used to measure the effect of test compounds on a bloodstream stage of Plasmodium falciparum 3D7 strain employs SYBR green as the readout. This is a dye that binds to double stranded deoxyribonucleic acid (DNA) with a resulting increase in fluorescence, allowing detection of P. falciparum DNA in infected erythrocytes, and thereby providing a measure of parasite growth and propagation.
P. falciparum Culture Maintenance
Erythrocytes (A+blood) were prepared for both parasite culture and assay by washing 4 times with incomplete media (15.9 g RPMI 1640 (25 mM HEPES, L-glutamine), 1 g NaHCO3, 2 g glucose, 400 μL gentacin (500 mg/mL), 2 mL hypoxanthine solution (13.6 g/L in 0.1M NaOH pH 7.3) in 1 litre of media). The cells were centrifuged at 1800 g for 5 minutes, before decanting the supernatant and re-suspending in fresh incomplete media. On the final wash, the cells were re-suspended in complete media (incomplete media with 5 g/L AlbumaxII), and centrifuged at 1800 g for 3 minutes. This cell sediment was treated as 100% haematocrit.
P. falciparum 3D7 was cultured in erythrocytes at 5% haematocrit in complete media at 37° C. (1% O2, 3% CO2, balance N2). Cultures were split on a weekly basis to achieve a 1% parasitaemia in erythrocites at 5% haematocrit in fresh media. Culture media is replaced by fresh media every other day (2 times during the week).
[formula] where A=% inhibition at bottom; B=% inhibition at top; C=EC50; D=slope; x=inhibitor concentration; and y=% inhibition. […] Assay Procedure—Version 2
On day 1, test compounds were added to assay plates using Echo dispensing technology ([…] and 20 points titration). 50 nL of each compound dilution was added to 50 μL of culture (5% haematocrit, 0.5% parasitaemia) and incubated for 72 h at 37° C. (1% O2, 3% CO2, balance N2). Final concentrations of test compounds ranged from 50,000 nM to 15 nM, in […].
On day 4, 10 μL SYBR green (Invitrogen S7563 supplied as 10,000× concentrate in DMSO) pre-diluted to 3× concentrate with Lysis buffer (20 mM Tris pH 7.9, 5% EDTA, 0.16% w/v, 1.6% TX100 v/v) was added to the cultures and incubated in the dark, overnight, at room temperature.
On day 5, fluorescent signal was measured using a BioTek plate reader (excitation 485 nm, emission 528 nm). All data were processed using IDBS ActivityBase. Raw data were converted into percent inhibition through linear regression by setting the high inhibition control (mefloquine) as 100% and the no inhibition control (DMSO) as 0%. Quality control criteria for passing plates were as follows: Z′>0.5, S:B>3, % CV(no inhibition control)<15. The formula used to calculate Z′ is:
[formula] where μ denotes the mean; σ denotes the standard deviation; p denotes the positive control; and n denotes the negative control.
All EC50 curve fitting was undertaken using the following bi-phasic two site dose response using XLfit model 300 (IDBS):
[formula] where A=100 minus the top of the upper curve 1 and the bottom of lower curve; B=Hill slope; log(C)=IC50 concentration at lower site; log(D)=IC50 concentration at upper site; x=inhibitor concentration; and y=% inhibition.

SMILES	pIC50
C[C@@]1(c2cccc(Nc3cnc(C(F)(F)F)nc3)c2Cl)CC(=O)N(C2CCOCC2)C(=N)N1 [Example 52, (6S)-6-(2-Chloro-3-{[2-(trifluoromethyl)pyrimidin-5-yl]amino}phenyl)-2-imino-6-methyl-3-(tetrahydropyran-4-yl)hexahydropyrimidin-4-one]	6.17
COc1ccncc1Nc1cccc([C@]2(C)CC(=O)N(C3CCOCC3)C(=N)N2)c1Cl [Example 54, (6S)-6-{2-Chloro-3-[(4-methoxypyridin-3-yl)amino]-phenyl}-2-imino-6-methyl-3-(tetrahydropyran-4-yl)-hexahydropyrimidin-4-one]	6.18
C[C@@]1(c2cccc(Nc3cccc4ccccc34)c2Cl)CC(=O)N(C2CCOCC2)C(=N)N1 [Example 57, (6S)-6-[2-Chloro-3-(1-naphthyl-amino)phenyl]-2-imino-6-methyl-3-(tetrahydropyran-4-yl)hexahydropyrimidin-4-one]	6.22
C[C@@]1(c2cccc(Nc3cccc(-c4ccccc4)c3)c2Cl)CC(=O)N(C2CCOCC2)C(=N)N1 [Example 58, (6S)-6-[2-Chloro-3-(3-phenyl-anilino)phenyl]-2-imino-6-methyl-3-(tetrahydropyran-4-yl)hexahydropyrimidin-4-one]	5.79
C[C@@]1(c2cccc(Nc3cccc(-c4ccno4)c3)c2Cl)CC(=O)N(C2CCOCC2)C(=N)N1 [Example 61, (6S)-6-{2-Chloro-3-[3-(isoxazol-5-yl)anilino]phenyl}-2-imino-6-methyl-3-(tetrahydro-pyran-4-yl)hexahydropyrimidin-4-one]	6.12
C[C@@]1(c2cccc(Nc3cccc(OC(F)F)c3)c2Cl)CC(=O)N(C2CCOCC2)C(=N)N1 [Example 63, (6S)-6-{2-Chloro-3-[3-(difluoro-methoxy)anilino]phenyl}-2-imino-6-methyl-3-(tetrahydro-pyran-4-yl)hexahydropyrimidin-4-one]	6.04
C[C@@]1(c2cccc(Nc3ccc(OC(F)(F)F)cc3)c2Cl)CC(=O)N(C2CCOCC2)C(=N)N1 [Example 64, (6S)-6-{2-Chloro-3-[4-(trifluoromethoxy)anilino]-phenyl}-2-imino-6-methyl-3-(tetrahydropyran-4-yl)-hexahydropyrimidin-4-one]	5.75
CC(=O)N1CCc2cc(Nc3cccc([C@]4(C)CC(=O)N(C5CCOCC5)C(=N)N4)c3Cl)ccc21 [Example 65, (6S)-6-{3-[(1-Acetylindolin-5-yl)amino]-2-chlorophenyl}-2-imino-6-methyl-3-(tetrahydro-pyran-4-yl)hexahydropyrimidin-4-one]	6.34
CC(C)(C)c1ccc(Nc2cccc([C@]3(C)CC(=O)N(C4CCOCC4)C(=N)N3)c2Cl)cc1 [Example 67, (6S)-6-[3-(4-tert-Butylanilino)-2-chlorophenyl]-2-imino-6-methyl-3-(tetrahydropyran-4-yl)hexahydropyrimidin-4-one]	5.59
C[C@@]1(c2cccc(Nc3cccc4c3OC(F)(F)O4)c2Cl)CC(=O)N(C2CCOCC2)C(=N)N1 [Example 68, (6S)-6-{2-Chloro-3-[(2,2-difluoro-1,3-benzodioxol-4-yl)amino]phenyl}-2-imino-6-methyl-3-tetrahydropyran-4-yl-hexahydropyrimidin-4-one]	6.28
Cc1cccc(C)c1Nc1cccc([C@]2(C)CC(=O)N(C3CCOCC3)C(=N)N2)c1Cl [Example 69, (6S)-6-[2-Chloro-3-(2,6-dimethylanilino)phenyl]-2-imino-6-methyl-3-(tetrahydro-pyran-4-yl)hexahydropyrimidin-4-one]	6.24
C[C@@]1(c2cccc(Nc3cc(F)c4ccnn4c3)c2Cl)CC(=O)N(C2CCOCC2)C(=N)N1 [Example 70, (6S)-6-{2-Chloro-3-[(4-fluoro-pyrazolo[1,5-a]pyridin-6-yl)-amino]phenyl}-2-imino-6-methyl-3-(tetrahydropyran-4-yl)hexahydropyrimidin-4-one]	6.32
C[C@@]1(c2cccc(Nc3ccc(-c4ccccc4)cc3)c2Cl)CC(=O)N(C2CCOCC2)C(=N)N1 [Example 71, (6S)-6-[2-Chloro-3-(4-phenyl-anilino)phenyl]-2-imino-6-methyl-3-(tetrahydropyran-4-yl)hexahydropyrimidin-4-one]	5.45
Cn1ccc(Nc2cccc([C@]3(C)CC(=O)N(C4CCOCC4)C(=N)N3)c2Cl)cc1=O [Example 73, (6S)-6-{2-Chloro-3-[(1-methyl-2-oxopyridin-4-yl)amino]-phenyl}-2-imino-6-methyl-3-(tetrahydropyran-4-yl)-hexahydropyrimidin-4-one]	4.98
CC(C)Oc1cccc(Nc2cccc([C@]3(C)CC(=O)N(C4CCOCC4)C(=N)N3)c2Cl)c1 [Example 74, (6S)-6-[2-Chloro-3-(3-isopropoxyanilino)phenyl]-2-imino-6-methyl-3-(tetrahydro-pyran-4-yl)hexahydropyrimidin-4-one]	5.89

Now those with a higher pIC50, led by results:

pIC50	SMILES
6.36	COc1nc(C)ccc1Nc1cccc([C@]2(C)CC(=O)N(C3CCOCC3)C(=N)N2)c1Cl [Example 55, (6S)-6-{2-Chloro-3-[(2-methoxy-6-methylpyridin-3-yl)-amino]phenyl}-2-imino-6-methyl-3-(tetrahydropyran-4-yl)hexahydropyrimidin-4-one]
6.43	C[C@@]1(c2cccc(Nc3cccnc3C#N)c2Cl)CC(=O)N(C2CCOCC2)C(=N)N1 [Example 51, 3-{2-Chloro-3-[(4S)-2-imino-4-methyl-6-oxo-1-(tetrahydro-pyran-4-yl)hexahydropyrimidin-4-yl]anilino}pyridine-2-carbo-nitrile]
6.44	C[C@@]1(c2cccc(Nc3ccc4c(c3)OCO4)c2Cl)CC(=O)N(C2CCOCC2)C(=N)N1 [Example 59, (6S)-6-[3-(1,3-Benzodioxol-5-ylamino)-2-chlorophenyl]-2-imino-6-methyl-3-(tetrahydro-pyran-4-yl)hexahydropyrimidin-4-one]
6.49	CN(C)c1ccc(Nc2cccc([C@]3(C)CC(=O)N(C4CCOCC4)C(=N)N3)c2Cl)cn1 [Example 72, (6S)-6-(2-Chloro-3-{[6-(dimethylamino)pyridin-3-yl]-amino}phenyl)-2-imino-6-methyl-3-(tetrahydropyran-4-yl)hexahydropyrimidin-4-one]
6.57	C[C@@]1(c2cccc(Nc3ccc(Cl)nc3)c2Cl)CC(=O)N(C2CCOCC2)C(=N)N1 [Example 60, (6S)-6-{2-Chloro-3-[(6-chloro-pyridin-3-yl)amino]phenyl}-2-imino-6-methyl-3-(tetrahydro-pyran-4-yl)hexahydropyrimidin-4-one]
6.60	C[C@@]1(c2cccc(Nc3cnccc3C(F)(F)F)c2Cl)CC(=O)N(C2CCOCC2)C(=N)N1 [Example 56, (6S)-6-(2-Chloro-3-{[4-(trifluoromethyl)pyridin-3-yl]-amino}phenyl)-2-imino-6-methyl-3-(tetrahydropyran-4-yl)hexahydropyrimidin-4-one]
6.65	CC(C)(C)c1ncc(Nc2cccc([C@]3(C)CC(=O)N(C4CCOCC4)C(=N)N3)c2Cl)cn1 [Example 62, (6S)-6-{3-[(2-tert-Butyl-pyrimidin-5-yl)amino]-2-chloro-phenyl}-2-imino-6-methyl-3-(tetrahydropyran-4-yl)-hexahydropyrimidin-4-one]
6.66	C[C@@]1(c2cccc(Nc3ccccc3OC(F)F)c2Cl)CC(=O)N(C2CCOCC2)C(=N)N1 [Example 66, (6S)-6-{2-Chloro-3-[2-(difluoro-methoxy)anilino]phenyl}-2-imino-6-methyl-3-(tetrahydro-pyran-4-yl)hexahydropyrimidin-4-one]
6.67	C[C@@]1(c2cccc(Nc3ccccc3OC(F)(F)F)c2Cl)CC(=O)N(C2CCOCC2)C(=N)N1 [Example 53, (6S)-6-{2-Chloro-3-[2-(trifluoromethoxy)anilino]-phenyl}-2-imino-6-methyl-3-(tetrahydropyran-4-yl)-hexahydropyrimidin-4-one]

Source: US11479546B2, “Antimalarial hexahydropyrimidine analogues” (UCB Biopharma SRL, priority 2018, dated 2022)
